Experimental data taken from patent US11926643B2, “Heterocyclic GLP-1 agonists” (Gasherbrum Bio, Inc., priority 2020, dated 2024).
Like-named read-outs stand apart in the source and are kept apart here.

Biological target: GLP-1 Receptor (Homo sapiens, UniProt P43220)
Assay: GLP-1R agonist cAMP stimulation assay (Method 3, HEK293/GLP1R/CRE-LUC, HDB)
Format: cell-based
Details: HDB HEK293/CRE-Luc cell line
Method: The methodology for detection of cAMP using EFC requires incubation with 20 μL of cAMP XS+ED/CL lysis cocktail for one hour followed by incubation with 20 μL cAMP XS+EA reagent for three hours at room temperature. Microplates are read following signal generation with a PerkinElmer Envision instrument utilizing chemiluminescent signal detection. Compound activity is analyzed using CBIS data analysis suite (ChemInnovation, CA). Percentage activity is calculated using the following formula: % Activity=100%×(mean RLU of test sample−mean RLU of vehicle control)/(mean RLU of MAX control−mean RLU of vehicle control)) Method 3: Activation of GLP-1 receptor is known to stimulate cyclic AMP (cAMP) production in cells which indicates primary coupling to the Gαs subunit of the G protein heterotrimeric complex.
To optimize functional activity directed toward Gαs coupling, a HEK293/CRE-Luc cell line developed by HDB stably expressing the GLP-1 Receptor was used. 200× concentration of compound working solutions were prepared (Agilent Technologies Bravo) with 1/2 log serial dilution in 384-well Echo LDV plate (Labcyte, Cat #LP-0200). 50 nL/well 200× concentration of compound working solutions were moved to 384-well white low volume plate (Greiner, Cat #784075) using Labcyte ECHO550. 1×10^5 cells/mL HEK293/GLP1R/CRE-LUC(HD Biosciences) cell suspensions prepared with assay buffer [DPBS containing 0.5 mM IBMX(Sigma, Cat #15879) and 0.1% BSA(GENVIEW, Cat #FA016-100 g)], 10 μL cell suspensions were added to each well of previous generated assay plate which already contains 50 nL compound at 200× concentration using ThermoFisher Multidrop Combi (1000 cells/well). Seal the plate and incubate at 37° C. with 5% CO2 for 30 min.
After incubation the cAMP assay signal was generated using cAMP dynamic 2 Kit (Cisbio). 5 μL cAMP-d2 working solution was added to each well, followed with 5 μL Anti-cAMP antibody-cryptate working solution added to each well using ThermoFisher Multidrop Combi. Incubate at room temperature for 1 hour protected from light. […] (Method 3)

[1] = read-out: GLP1R cAMP Stimulation DR: EC50 (nM) [Species: Human, Assay Cell Line: HDB]
[2] = read-out: GLP1R cAMP Stimulation DR: pEC50 (M) [Species: Human, Assay Cell Line: HDB] (converted)

Sequence of GLP-1 Receptor (P43220 24-463): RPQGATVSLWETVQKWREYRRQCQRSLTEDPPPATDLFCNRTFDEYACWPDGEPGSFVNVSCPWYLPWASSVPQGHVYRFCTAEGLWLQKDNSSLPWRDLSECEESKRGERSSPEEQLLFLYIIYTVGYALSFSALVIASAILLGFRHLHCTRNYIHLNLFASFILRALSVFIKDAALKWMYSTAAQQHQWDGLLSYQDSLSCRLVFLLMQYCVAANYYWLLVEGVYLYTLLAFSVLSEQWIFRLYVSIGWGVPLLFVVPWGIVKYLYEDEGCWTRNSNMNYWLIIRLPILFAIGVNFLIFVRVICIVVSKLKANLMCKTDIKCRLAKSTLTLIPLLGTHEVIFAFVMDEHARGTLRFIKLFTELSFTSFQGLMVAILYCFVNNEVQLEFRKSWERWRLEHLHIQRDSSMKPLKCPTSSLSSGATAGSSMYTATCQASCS

EC50 [1] [nM]	EC50 [2] [nM]	SMILES
0.1 to 0.2	0.1 to 1	CNc1cc(-n2ccn(-c3c4c(nn3-c3cc(C)c(F)c(C)c3)CCN(C(=O)c3cc5cc(C6CCOCC6)ccc5n3[C@@]3(c5noc(=O)[nH]5)C[C@@H]3C)[C@H]4C)c2=O)ccc1P(C)(=O)C(C)(C)C (stereo partly drawn) [Compound 131a, 3-((1S,2S)-1-(2-((4S)-3-(3-(4-(tert-butyl(methyl)phosphoryl)-3-(methylamino)phenyl)-2-oxo-2,3-dihydro-1H-imidazol-1-yl)-2-(4-fluoro-3,5-dimethylphenyl)-4-methyl-4,5,6,7-tetrahydro-2H-pyrazolo[4,3-c]pyridine-5-carbonyl)-5-(tetrahydro-2H-pyran-4-yl)-1H-indol-1-yl)-2-methylcyclopropyl)-1,2,4-oxadiazol-5 (4H)-one]
< 0.1	≤ 0.1	CCP(=O)(CC)c1ccc(-n2ccn(-c3c4c(nn3-c3cc(C)c(F)c(C)c3)CCN(C(=O)c3cc5cc(C6CCOCC6)ccc5n3[C@@]3(c5noc(=O)[nH]5)C[C@@H]3C)[C@H]4C)c2=O)cc1C(F)F [Compound 142a, 3-((1S,2S)-1-(2-((S)-3-(3-(4-(diethylphosphoryl)-3-(difluoromethyl)phenyl)-2-oxo-2,3-dihydro-1H-imidazol-1-yl)-2-(4-fluoro-3,5-dimethylphenyl)-4-methyl-4,5,6,7-tetrahydro-2H-pyrazolo[4,3-c]pyridine-5-carbonyl)-5-(tetrahydro-2H-pyran-4-yl)-1H-indol-1-yl)-2-methylcyclopropyl)-1,2,4-oxadiazol-5 (4H)-one]

Second part, the molecule before the results:

SMILES	EC50 [1] [nM]	EC50 [2] [nM]
Cc1cc(-n2nc3c(c2-n2ccn(-c4ccc(P(C)(C)=O)cc4)c2=O)[C@H](C)N(C(=O)c2cc4cc(C5CCOC(C)(C)C5)ccc4n2[C@@]2(c4noc(=O)[nH]4)C[C@@H]2C)CC3)cc(C)c1F (stereo partly drawn) [Compound 102a, 3-((1S,2S)-1-(2-((S)-3-(3-(4-(dimethylphosphoryl)phenyl)-2-oxo-2,3-dihydro-1H-imidazol-1-yl)-2-(4-fluoro-3,5-dimethylphenyl)-4-methyl-4,5,6,7-tetrahydro-2H-pyrazolo[4,3-c]pyridine-5-carbonyl)-5-(2,2-dimethyltetrahydro-2H-pyran-4-yl)-1H-indol-1-yl)-2-methylcyclopropyl)-1,2,4-oxadiazol-5 (4H)-one]	< 0.1	≤ 0.1
CCP(=O)(CC)c1ccc(-n2ccn(-c3c4c(nn3-c3cc(C)c(F)c(C)c3)CCN(C(=O)c3cc5cc([C@H]6CCOC(C)(C)C6)ccc5n3[C@@]3(c5noc(=O)[nH]5)C[C@@H]3C)[C@H]4C)c2=O)cc1 [Compound 130b, 3-((1S,2S)-1-(2-((S)-3-(3-(4-(diethylphosphoryl)phenyl)-2-oxo-2,3-dihydro-1H-imidazol-1-yl)-2-(4-fluoro-3,5-dimethylphenyl)-4-methyl-4,5,6,7-tetrahydro-2H-pyrazolo[4,3-c]pyridine-5-carbonyl)-5-((S)-2,2-dimethyltetrahydro-2H-pyran-4-yl)-1H-indol-1-yl)-2-methylcyclopropyl)-1,2,4-oxadiazol-5 (4H)-one]	< 0.1	≤ 0.1
CNc1cc(-n2ccn(-c3c4c(nn3-c3cc(C)c(F)c(C)c3)CCN(C(=O)c3cc5cc(C6CCOCC6)ccc5n3C3(c5noc(=O)[nH]5)CC3)[C@H]4C)c2=O)ccc1P(C)(=O)C(C)(C)C (stereo partly drawn) [Compound 149a, 3-(1-(2-((4S)-3-(3-(4-(tert-butyl(methyl)phosphoryl)-3-(methylamino)phenyl)-2-oxo-2,3-dihydro-1H-imidazol-1-yl)-2-(4-fluoro-3,5-dimethylphenyl)-4-methyl-4,5,6,7-tetrahydro-2H-pyrazolo[4,3-c]pyridine-5-carbonyl)-5-(tetrahydro-2H-pyran-4-yl)-1H-indol-1-yl)cyclopropyl)-1,2,4-oxadiazol-5 (4H)-one]	0.1 to 0.2	0.1 to 1
